According to patent US20210087191A1, “SUBSTITUTED 3-ISOBUTYL-9,10-DIMETHOXY-1,3,4,6,7,11B-HEXAHYDRO-2H-PYRIDO[2,1-a]ISOQUINOLIN-2-OL COMPOUNDS, THEIR [sequence], AND USE THEREOF” (DISPERSOL TECHNOLOGIES, LLC, priority 2020, published 2021):
≈ marks a conversion by molar mass, not a printed value. Read-outs that look alike come from different tables or passages of the source.

Experiments:
[1] = cited from earlier work
[2] = compared to the other three isomers; cited from earlier work
[3] = tested on: VMAT1, other receptors (e.g., dopamine D2 receptors), transporters, and ion channels; conditions: in vitro; cited from earlier work
[4] = Metabolic stability in human liver microsomes (LM), LC-MS/MS (first table); assay type: in vitro ADME; conditions: for microsomal CLint: Table 1, read-out: Human LM CLint (μL/min/mg protein); for half-life: Table 1, read-out: Human LM t1/2
Protocol: (§1) Metabolism of compound(s) to release (+)-α-DTHBZ was determined by the half-life (t1/2) and intrinsic clearance (CIint) in human plasma (PS) and liver microsomes (LM) using tandem mass spectrometry (LC-MS/MS).

[5] = Stability in human plasma (PS), LC-MS/MS; assay type: in vitro ADME; conditions: for half-life: read-out: Human PS t1/2
Protocol: as §1

[6] = LM stability assay, human (second table); assay type: in vitro ADME; conditions: human liver microsomes, Table 2; for microsomal CLint: read-out: LM stability assay Human Clint (μL/min/mg protein); for half-life: read-out: LM stability assay Human t1/2
Protocol: Metabolism of compound(s) to release (+)-α-DTHBZ was determined by the half-life (t1/2) and intrinsic clearance (CIint) in human liver microsomes (LM) using tandem mass spectrometry (LC-MS/MS).

[7] = Heps. stability assay, human cryopreserved hepatocytes; assay type: in vitro ADME; conditions: for microsomal CLint: read-out: Heps. stability assay Human Clint (μL/min/mg protein); for half-life: read-out: Heps. stability assay Human t1/2
Protocol: (§2) Metabolism of compound(s) to release (+)-α-DTHBZ was determined by the half-life (t1/2) and intrinsic clearance (CIint) in human cryopreserved hepatocytes using tandem mass spectrometry (LC-MS/MS).

[8] = Kinetic solubility in PBS buffer; assay type: physicochemical; conditions: aqueous buffer, kinetic from dmso stock, compound suspended at 300 μM, 25° C.
Protocol: Kinetic solubility was determined by suspending compound at 300 μM at pH 1.2 and 7.4 in PBS buffer. The suspension was equilibrated by shaking at 25° C. at 1100 RPM for 2 hours and then pH was measured following filtration. The filtrate was then diluted by an appropriate factor (e.g. 100-fold). Quantitation was done by LC-MS/MS with reference to a standard solution.

[9] = Permeability in Caco-2 cell monolayer; assay type: in vitro ADME; conditions: human; for efflux ratio: Caco-2; for Papp A→B: Caco-2, apical to basolateral; for Papp B→A: Caco-2, basolateral to apical
Protocol: The intestinal permeability of compound(s) was evaluated in Caco-2 cells by assessing transport across the cell monolayer in the apical to basolateral (A-B) direction. Active efflux was also assessed by measuring transport in the basolateral to apical (BA) direction which enables evaluation of the efflux ratio. Analysis of transport is quantified by tandem mass spectrometry (LC-MS/MS).

[10] = tested on: human cryopreserved hepatocytes; experiment: Heps. stability assay, human cryopreserved hepatocytes; assay type: in vitro ADME
Protocol: as §2

[11] = cited from earlier work; remark: listed apart in the source
[12] = human, oral 25 mg IR formulation; cited from earlier work
[13] = in vivo; cited from earlier work
[14] = target: vesicular monoamine transporter-2 (VMAT2) (Homo sapiens, UniProt Q05940); conditions: read-out: IC50, inhibition of catecholamine uptake by VMAT2; cited from earlier work
Sequence of vesicular monoamine transporter-2 (VMAT2) (Q05940 whole entry, species assumed): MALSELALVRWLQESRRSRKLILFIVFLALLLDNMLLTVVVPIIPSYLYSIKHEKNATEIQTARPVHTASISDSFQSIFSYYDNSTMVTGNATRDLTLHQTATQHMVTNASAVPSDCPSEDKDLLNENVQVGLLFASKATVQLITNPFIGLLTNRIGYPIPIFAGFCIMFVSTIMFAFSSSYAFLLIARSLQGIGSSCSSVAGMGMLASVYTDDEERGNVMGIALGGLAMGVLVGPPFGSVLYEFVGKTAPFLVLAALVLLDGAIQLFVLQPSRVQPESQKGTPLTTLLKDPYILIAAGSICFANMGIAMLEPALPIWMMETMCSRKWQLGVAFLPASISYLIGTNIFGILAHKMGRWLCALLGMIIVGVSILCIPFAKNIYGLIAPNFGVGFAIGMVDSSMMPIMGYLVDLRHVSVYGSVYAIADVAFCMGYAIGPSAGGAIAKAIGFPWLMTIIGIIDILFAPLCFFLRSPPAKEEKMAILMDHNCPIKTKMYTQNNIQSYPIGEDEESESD

[15] = pH 1.2, PBS buffer, read-out: Kinetic Solubility pH = 1.2 (300 μM)
[16] = pH 7.4, PBS buffer, read-out: Kinetic Solubility pH = 7.4 (300 μM)

Row | microsomal CLint [4] [µL/min/mg] | half-life [4] [h] | half-life [5] [h] | microsomal CLint [6] [µL/min/mg] | half-life [6] [h] | microsomal CLint [7] [µL/min/mg] | half-life [7] [h] | solubility kinetic at 2 h [8, 15] [µM] | solubility kinetic at 2 h [8, 16] [µM] | efflux ratio [9] | Papp A→B [9] [×10⁻⁶ cm/s] | Papp B→A [9] [×10⁻⁶ cm/s] | Structure (SMILES) | further results
1 |  |  |  |  |  |  |  |  |  |  |  |  | COc1cc2c(cc1OC)[C@H]1C[C@@H](O)[C@H](CC(C)C)CN1CC2 [(+)-α-DHTBZ, 2R,3R,11bR-dihydrotetrabenazine] | Cmax (time) of (+)-α-DHTBZ formed from Valbenazine ([1]; after Valbenazine, hydrolysis of the valine ester): 4 to 8 h; Tmax of (+)-α-DHTBZ after the administration of Valbenazine ([1]; after administration of Valbenazine): 4 to 8 h; off-target affinity [2]: no off-target affinity
2 |  |  |  |  |  |  |  |  |  |  |  |  | COc1cc2c(cc1OC)[C@H]1C[C@@H](OC(=O)[C@@H](N)C(C)C)[C@H](CC(C)C)CN1CC2 [Valbenazine, (2R,3R,11bR)-9,10-dimethoxy-3-(2-methylpropyl)-1,3,4,6,7,11b-hexahydro-2H-benzo[a]quinolizin-2-yl L-valinate] | oral bioavailability ([1]; in vivo, po): 49%; Tmax ([1]; in vivo): 0.5 to 1 h; excreted in feces ([1]; in vivo): 30%; excreted in urine ([1]; in vivo): Approximately 60%; parent compound or active metabolite excreted unchanged ([1]; in vivo): Less than 2%; t1/2 ([1]; in vivo): 15 to 22 h; affinity for VMAT1, other receptors, transporters, and ion channels [3]: little or no affinity
3 | 2.17 | 5.76 | 2.38 | 0.35 | 51.1 | 4.75 | 4.89 | 303 (≈ 156 µg/mL) | 300 (≈ 155 µg/mL) | > 402 | < 0.01 | 4.02 | COc1cc2c(cc1OC)[C@H]1C[C@@H](OC(=O)/C=C\C(=O)N[C@H](C(=O)O)C(C)C)[C@H](CC(C)C)CN1CC2 [Example 13, (2S)-2-[(2Z)-4-[[(2R,3R,11bR)-9,10-dimethoxy-3-(2-methylpropyl)-1H,2H,3H,4H,6H,7H,11bH-pyrido[2,1-a]isoquinolin-2-yl]oxy]-4-oxobut-2-enamido]-3-methylbutanoic acid] | 
4 | < 0.35 | > 32.9 | > 44.7 | 1.67 | 13.4 |  |  | 276 (≈ 130 µg/mL) | 294 (≈ 138 µg/mL) | 25.1 | 0.68 | 17.1 | COc1cc2c(cc1OC)[C@H]1C[C@@H](OC(=O)c3cncc(C(=O)O)c3)[C@H](CC(C)C)CN1CC2 [Example 6, 5-([[(2R,3R,11bR)-9,10-dimethoxy-3-(2-methylpropyl)-1H,2H,3H,4H,6H,7H,11bH-pyrido[2,1-a]isoquinolin-2-yl]oxy]carbonyl)pyridine-3-carboxylic acid] | Heps. stability assay Human t1/2 (min) [10]: ∞
5 | 1.42 | 11.5 | 0.238 | 2.38 | 8.91 | 6.27 | 3.69 | 320 (≈ 181 µg/mL) | 306 (≈ 173 µg/mL) | 85.4 | 0.13 | 11.3 | COc1cc2c(cc1OC)[C@H]1C[C@@H](OC(=O)/C=C/C(=O)N[C@@H](Cc3ccccc3)C(=O)O)[C@H](CC(C)C)CN1CC2 [Example 12, (2S)-2-[(2E)-4-[[(2R,3R,11bR)-9,10-dimethoxy-3-(2-methylpropyl)-1H,2H,3H,4H,6H,7H,11bH-pyrido[2,1-a]isoquinolin-2-yl]oxy]-4-oxobut-2-enamido]-3-phenylpropanoic acid] | 
6 | 3.16 | 3.89 |  | 1.04 | 56.8 | 50.7 | 0.456 | 276 (≈ 131 µg/mL) | 306 (≈ 146 µg/mL) | 0.98 | 22.4 | 22 | COc1cc2c(cc1OC)[C@H]1C[C@@H](OC(=O)CCCCCCC(=O)O)[C@H](CC(C)C)CN1CC2 [Example 5, 8-[[(2R,3R,11bR)-9,10-dimethoxy-3-(2-methylpropyl)-1H,2H,3H,4H,6H,7H,11bH-pyrido[2,1-a]isoquinolin-2-yl]oxy]-8-oxooctanoic acid] | Human PS t1/2 (min) [5]: ∞
7 |  |  |  |  |  |  |  |  |  |  |  |  | COc1cc2c(cc1OC)C1CC(=O)C(CC(C)C)CN1CC2 (stereo not shown) [TBZ, 3-isobutyl-9,10-dimethoxy-1,3,4,6,7,11b-hexahydro-2H-pyrido[2,1-a]isoquinolin-2-one] | solubility in acidic environments ([11]; pH<2): 8500 µg/mL (≈ 26.8 mM); solubility in neutral environments ([11]; pH>4): 30 µg/mL (≈ 0.0945 mM); Mean Tmax [12]: approximately 1 hour; mean t1/2 [12]: approximately 2 hours; Tmax [13]: 1 h; IC50 [14]: 3.2 nM
8 | < 0.79 | > 14.7 |  |  |  |  |  | 281 (≈ 118 µg/mL) | 295 (≈ 124 µg/mL) | 2.54 | 8.67 | 22 | COc1cc2c(cc1OC)[C@H]1C[C@@H](OC(=O)CCC(=O)O)[C@H](CC(C)C)CN1CC2 [Example 2, 4-[[(2R,3R,11bR)-9,10-dimethoxy-3-(2-methylpropyl)-1H,2H,3H,4H,6H,7H,11bH-pyrido[2,1-a]isoquinolin-2-yl]oxy]-4-oxobutanoic acid] | Human PS t1/2 (min) [5]: ∞; LM stability assay Human t1/2 (min) [6]: ∞; Heps. stability assay Human t1/2 (min) [10]: ∞
9 |  |  |  |  |  |  |  |  |  |  |  |  | [2H]C([2H])([2H])Oc1cc2c(cc1OC([2H])([2H])[2H])C1CC(=O)C(CC(C)C)CN1CC2 (stereo not shown) [Austedo®] | median Tmax [13]: 3 to 4 h
10 | < 1.25 | > 9.21 |  | 150 | 0.0775 | 22.6 | 1.03 | 141 (≈ 110 µg/mL) | 0.042 (≈ 0.0326 µg/mL) |  | < 0.02 | < 0.01 | COc1cc2c(cc1OC)[C@H]1C[C@@H](OC(=O)CCCCCCC(=O)O[C@@H]3C[C@@H]4c5cc(OC)c(OC)cc5CCN4C[C@H]3CC(C)C)[C@H](CC(C)C)CN1CC2 [Example 16, bis[(2R,3R,11bR)-9,10-dimethoxy-3-(2-methylpropyl)-1H,2H,3H,4H,6H,7H,11bH-pyrido[2,1-a]isoquinolin-2-yl] octanedioate] | Human PS t1/2 (min) [5]: ∞
11 | 65.8 | 0.176 | > 13.5 | 922 | 0.0125 | 282 | 0.082 | 311 (≈ 143 µg/mL) | 5.84 (≈ 2.7 µg/mL) | 0.84 | 1.78 | 1.5 | COc1cc2c(cc1OC)[C@H]1C[C@@H](OC(=O)CCC(=O)OC(C)C)[C@H](CC(C)C)CN1CC2 [Example 7, (2R,3R,11bR)-9,10-dimethoxy-3-(2-methylpropyl)-1H,2H,3H,4H,6H,7H,11bH-pyrido[2,1-a]isoquinolin-2-yl 1-isopropyl butanedioate] | 
12 | 1.59 | 7.6 | 36.9 | 71.5 | 0.162 | 16.9 | 1.37 | 308 (≈ 222 µg/mL) | 0.0019 (≈ 0.00137 µg/mL) | > 1.93 | < 0.02 | 0.0333 | COc1cc2c(cc1OC)[C@H]1C[C@@H](OC(=O)CCC(=O)O[C@@H]3C[C@@H]4c5cc(OC)c(OC)cc5CCN4C[C@H]3CC(C)C)[C@H](CC(C)C)CN1CC2 [Example 17] | 
